From US10220096B2, “Injectable and stable hydrogels with dynamic properties modulated by biocompatible catalysts” (The Board of Trustees of the Leland Stanford Junior …, priority 2016, dated 2019) come the findings set out here.

SMILES strings stand for the structures.

Data set [1] in a line: Catalyst diffusion out of hydrogel (UV absorption at about 281 nm). Conditions: about 50 μL hydrogel in about 1 mL PBS. It counts as physicochemical. The method, then:
Long-term stability of hydrogel scaffolds is often desired to provide support for cell adhesion and growth after cell injection. Rapid hydrogel erosion is a challenge for many dynamic and injectable hydrogels. It is proposed that rapid passive diffusion of the dissolved small molecule catalyst away from the hydrogel post-injection would slow down the dynamic exchange of hydrazone crosslinks and thus enhance the hydrogel stability. Therefore evaluation was performed to monitor the diffusion of 2, which was incorporated in the hydrogel at either about 25 mM or about 50 mM initial concentration, into the buffer solution after injection by monitoring its absorption at about 281 nm. After about 50 μL hydrogel was injected and immersed in about 1 mL PBS, about 60% of 2 diffused out of the hydrogel within about 1 h, and less than about 1% remained inside the gel after about 8 h (FIG. 5a). […]
(§1) HA hydrogels containing 0, about 25, and about 50 mM of catalyst 2 were prepared as described in the previous section. […] Catalyst diffusion was quantified using UV measurement by monitoring absorption at about 281 nm. HA erosion was quantified by uronic acid assay according to reported procedures.

Data set [2] in a line: Ejection of hydrogel through 28-gauge syringe needle (injectability). The data set is classed as physicochemical. The following applies: about 2 wt. % hydrogel with about 25 mM of 2. The method, then:
(§2) Evaluation was performed on the effect of catalyst 2 incorporated in HA-hydrazone hydrogels on the protection of encapsulated cells during injection. HUVECs were homogeneously encapsulated in about 2 wt. % hydrogels containing about 25 mM of 2 by rapidly mixing the cells suspended in HA solutions with catalyst and transferring to a syringe. Hydrogel was rapidly formed in the syringe and ejected through a 28-gauge syringe needle. A syringe pump was used for all cell injection experiments to ensure consistent flow rate for accurate comparison between all samples.

The test system of data set [3] is Human Umbilical Vein Endothelial Cells (HUVECs). The data set is described as follows: Catalyst toxicity, MTT cell viability assay. The data set is classed as cell-based. The following applies: 2D culture. The method, then: Human Umbilical Vein Endothelial Cells (HUVECs) were obtained from Lonza. HUVECs were expanded in growth medium composed of about 10% fetal bovine serum, about 1% penicillin/streptomycin in EBM-2. The medium was changed every about 3 d and the cells were passaged at about 70% confluency. Cells were used at passage 5 or lower for all experiments.
HUVECs pre-seeded in 96-well plates at about 10^4 cells/well were incubated with catalysts 1 and 2 for about 1 h, about 4 h, about 24 h and about 72 h. Afterwards, the cells were washed with PBS, the cell viability MTT assay was carried out to determine the cell viabilities relative to the control cells incubated with the same volume of PBS.
In general terms: Tetrazolium assays rely on reduction of a dye to a coloured formazan, in cell work by metabolically active cells.

For data set [4], the system named is HUVECs encapsulated in hydrogel. The data set is described as follows: In vitro cell injection and quantification of viability (LIVE/DEAD). The data set is classed as cell-based, Human. The following applies: about 2 wt. % hydrogel with about 25 mM of 2, 28-gauge needle, about 20 min post-injection. The method, then:
as §2
After injection, cells encapsulated in the hydrogels were incubated for about 20 min, and cell viability was then analyzed using a LIVE/DEAD staining assay.
Cell suspension was first mixed with HA-hydrazine stock solutions before further mixing with catalyst and HA-aldehyde stock solutions. All in vitro injection experiments were performed with about 30 μL gel volume containing about 3×10^4 cells. For cell injection, the final mixing stage was performed in the barrel of an about 1 mL insulin syringe fitted with a 28 gauge needle. […] Cell viability was determined using LIVE/DEAD viability/cytotoxicity kit (Invitrogen) at about 20 min post-injection and about 3 d post-injection (n=5). […] Cell numbers were quantified using ImageJ at each time point.

Data set [5] is described as follows: Hydrogel erosion study (uronic acid assay). It counts as physicochemical. As to the method: Long-term stability of hydrogel scaffolds is often desired to provide support for cell adhesion and growth after cell injection. Rapid hydrogel erosion is a challenge for many dynamic and injectable hydrogels. It is proposed that rapid passive diffusion of the dissolved small molecule catalyst away from the hydrogel post-injection would slow down the dynamic exchange of hydrazone crosslinks and thus enhance the hydrogel stability. Therefore evaluation was performed to monitor the diffusion of 2, which was incorporated in the hydrogel at either about 25 mM or about 50 mM initial concentration, into the buffer solution after injection by monitoring its absorption at about 281 nm. After about 50 μL hydrogel was injected and immersed in about 1 mL PBS, about 60% of 2 diffused out of the hydrogel within about 1 h, and less than about 1% remained inside the gel after about 8 h (FIG. 5a). To examine whether the rapid diffusion and thus removal of catalyst can increase the long-term stability of the hydrogels, comparison is performed of the erosion rate of hydrogels with different initial concentrations of incorporated catalyst. […] Hydrogels initially containing about 25 mM or about 50 mM of catalyst 2 had erosion rates of about 3.8 and about 4.1% per day respectively, similar to those without a catalyst (FIG. 5b), presumably due to rapid diffusion of 2 out of the hydrogels. In contrast, when diffusion of 2 away from the hydrogel was prevented by immersing the hydrogel into a buffer solution containing about 25 mM of 2, the hydrogel was completely dissolved within about 12 h (FIG. 12). […]
as §1

A short description of data set [6]: Kinetic measurements on hydrazone exchange (model reaction, HPLC). The following applies: for k1, rate of hydrazone formation / k−1, rate of hydrazone cleavage: PBS pH about 7.4, about 37° C. The method, then: 2-(aminomethyl)benzimidazole (1 in FIG. 2) is an efficient catalyst to accelerate hydrazone formation owing to facilitated intramolecular proton transfer in the transition state. The rates for hydrazone formation (k1) and cleavage (k−1) in the presence of 1 were measured using model reactions between hydrazine and aldehyde and modeled for a reversible second-order reaction (FIG. 8), and the equilibrium constant (Keq) was calculated from these rate constants. […] The gelation time of the HA-hydrazone hydrogels was dramatically shortened in the presence of 1. […] In the presence of about 25 mM of 1, gelation occurred in less than about 60 s and reached a final plateau shear modulus of about 800 Pa in about 5 min (FIG. 3b). Increasing the catalyst loading to about 100 mM further shortened the time to reach equilibrium to about 3 min (FIG. 3b). As shown in the frequency sweep experiment (FIG. 3c), stable gels were formed with a plateau storage modulus (G′) of about 1 kPa, which is more than an order of magnitude higher than the loss modulus (G″). […] In contrast, altering the HA polymer composition from about 1 to about 4 wt. % increased the plateau modulus (FIG. 3c). […] The rate of stress relaxation under constant strain was quantified by the time for the initially measured stress to relax to half of its original value, τ1/2. […] Accelerated hydrazone exchange by an incorporated catalyst also allowed these hydrogels to be readily remolded macroscopically (FIG. 9), facilitating their injection and re-processing. […] Therefore, the design provides a strategy to tune the modulus and rate of stress relaxation, two important mechanical properties for dynamic hydrogel materials, independently and continuously by polymer concentration and catalyst concentration, respectively.
The equilibrium constant (Keq) and rate constants for hydrazone formation (k1) and cleavage (k−1) between aldehyde S1 and hydrazine S3 as model compounds with different concentrations of catalyst 1 were measured by HPLC. S3 was synthesized by coupling N-(2-aminoethyl)-4-amino-1,8-naphthalimide with hydrazine using carbodiimide chemistry. About 2 mM stock solutions of hydrazine and aldehyde were prepared in a PBS buffer (1×, pH of about 7.4). An about 250 mM stock solution of catalyst 1 was prepared in PBS as described in the previous sections.
For the reactions performed in the absence of catalyst, about 10 μL of hydrazine and about 10 μL of aldehyde stock solutions were added to about 980 μL PBS buffer (1×, pH of about 7.4). For the reactions performed in the presence of catalyst 1, the appropriate amount of catalyst 1, hydrazine, and aldehyde were sequentially added to PBS buffer (1×, pH of about 7.4) from their stock solutions, maintaining the same concentrations for hydrazine and aldehyde as those without a catalyst. The reactions were performed at about 37° C. in a water bath and followed using HPLC with detection at about 420 nm absorption (HPLC conditions: XBridge 10 μm C18 column; about 40% acetonitrile in PBS buffer (pH of about 7) isocratic elution in about 7 min at a flow rate of about 0.34 mL/min. The concentrations and conversions were calculated from the integrals of the HPLC signals. The kinetic data of hydrazone formation were fitted to a kinetic model for 2nd order reactions using Matlab (FIG. 8).
Conditions: about 137 mM NaCl, about 2.7 mM KCl, about 12 mM phosphate, pH of about 7.4 buffer, about 37° C.

Data set [7] can be described thus: Rheological tests of HA-hydrazone hydrogels (time sweep, frequency sweep, stress relaxation). Conditions: for τ1/2, time for stress to relax to half of its original value: about 10% strain. The data set is classed as physicochemical. The method, then:
HA-hydrazine and HA-aldehyde were first solubilized in PBS (1×, pH of about 7.4) at 5 wt. % respectively. Catalyst 1 and 2 were dissolved in PBS (1×, pH of about 7.4) and adjusted pH to about 7.4 at a stock concentration of about 250 mM. HA hydrogels were prepared by mixing HA-hydrazine, catalyst, and HA-aldehyde stock solutions successively at hydrazine to aldehyde (molar) ratio of about 1:1. The volumes of stock solutions were adjusted to make gels with different formulations.
Rheological characterization was performed on a stress-controlled rheometer (AR-G2, TA instrument) using a 20 mm cone plate. About 45 μL of a sample was loaded immediately onto the rheometer after mixing to gel in situ on the rheometer and a humidity chamber was secured in place to prevent dehydration. All the tests were performed at about 37° C. Time sweeps were performed at about 1 Hz at about 1% constant strain. Frequency sweeps were performed from about 0.1 to about 10 Hz at about 1% constant strain. Stress relaxation experiments were performed at about 10% strain.

Data set [8] can be described thus: Compression test, remoldability of hydrogels. The data set is classed as physicochemical. The following applies: hydrogel containing about 100 mM of 1. An excerpt:
FIG. 9. Compression test showing remoldability of HA-hydrazone hydrogels was improved with the addition of a catalyst.

Setting [9] is: about 2 wt. % HA hydrogel, about 25 mM of 1.

On to `NCc1nc2ccccc2n1CCCS(=O)(=O)O` [catalyst 2], for which, in data set [1] (after about 8 h), the “fraction of catalyst remaining inside the gel” value was “less than 1%”. The “fraction of catalyst diffused out of the hydrogel” value in data set [1] (within about 1 h, about 25 or 50 mM initial) was “about 60%”. Moreover, the “injectability through 28-gauge needle” value in data set [2] is reported as “readily ejected through the thin needle without clogging”. Also, the HUVEC cell death entry in data set [3] (about 5 mM, after about 3 days) was “negligible cell death”. In data set [3] (about 25 mM, about 24 h exposure), the cells remaining viable result was “about 85%”. Further, the “cell viability after injection” value in data set [4] was “about 87%”. The “time to complete dissolution of hydrogel” value in data set [5] (hydrogel immersed in buffer containing about 25 mM of 2 (diffusion prevented)) is recorded as at most 12 h. For the same compound, the erosion rate result in data set [5] (hydrogel initially containing about 25 mM of catalyst 2) is given as “about 3.8 % per day”; in data set [5] (hydrogel initially containing about 50 mM of catalyst 2), “about 4.1 % per day”.

Regarding `NCc1nc2ccccc2[nH]1` [catalyst 1, 2-(aminomethyl)benzimidazole], the “k1, rate of hydrazone formation” value in data set [6] (25 mM of 1) turned out to be 127 M⁻¹ s⁻¹; in data set [6] (50 mM of 1) it was 250 M⁻¹ s⁻¹; in data set [6] (100 mM of 1), 495 M⁻¹ s⁻¹. Also, the figures for the “k−1, rate of hydrazone cleavage” value in data set [6] (25 mM of 1), in data set [6] (50 mM of 1) and in data set [6] (100 mM of 1) were 0.00103 s⁻¹, 0.00203 s⁻¹ and 0.00401 s⁻¹, respectively. In addition, the “enhancement of k1” value in data set [6] (about 25 mM of 1) is “about 24 fold”; in data set [6] (about 50 mM of 1), “about 47 fold”; in data set [6] (about 100 mM of 1) it was “about 94 fold”. The “enhancement of k−1” value in data set [6] (about 25 mM of 1) is reported as “about 24 fold”; in data set [6] (about 50 mM of 1), “about 47 fold”; in data set [6] (about 100 mM of 1), “about 94 fold”. The HUVEC cell death entry in data set [3] (about 25 mM, within several hours) is recorded as “Significant cell death”. Also, the entries for the “τ1/2, time for stress to relax to half of its original value” in data set [7] (about 25 mM of 1) and in data set [7] (about 100 mM of 1) were “about 10 min” and “about 3 min”, respectively. Also, the “final plateau shear modulus” value in data set [7] (setting [9]) is reported as “about 800 Pa”. In data set [7] (setting [9]), the “time to reach final plateau shear modulus” value is recorded as “about 5 min”. In addition, in data set [7] (about 2 wt. % HA hydrogel, about 25 mM of 1, about 37° C.), the gelation time entry is reported as “less than 60 s”. Also, in data set [7] (about 2 wt. % HA hydrogel, about 100 mM of 1), the “time to reach equilibrium (gelation)” value is given as “about 3 min”. Also, the “remoldability after pressing from about 2.4 mm to about 0.6 mm for about 5 min” value in data set [8] is on record as “adopted the height of the mold”.
